Reference: patent US20070254891A1, “Crystalline forms of 4-(2-fluorophenyl)-6-methyl-2-(piperazin-1-yl)thieno[2,3-d]pyrimidine” (Dynogen Pharmaceuticals, Inc., priority 2006, published 2007)
Like-named read-outs stand apart in the source and are kept apart here.

Experiments:
Assay type in all cases: physicochemical
[1] = pKa determination (Sirius GlpKa, potentiometric and UV)
Procedure: pKa was measured on a Sirius GlpKa instrument equipped with a D-PAS attachment. A UV measurement was taken when the sample was in an aqueous solution and a potentiometric was taken when the sample was in a MeOH:H2O mixture. Measurements were taken at 25° C. The titration media was ionic strength adjusted with 0.15M KCl. Values determined from potentiometric measurements in the MeOH:H2O mixtures were corrected to 0% co-solvent via a Yasuda-Shedlovsky extrapolation. The data was refined using Refinement Pro software version 1.0. Prediction of pKa values was made using ACD pKa prediction software Ver 8.

[2] = LogP / LogPion / LogD by potentiometric titration (octanol:ISA water)
Procedure: LogP was determined using a potentiometric titration on a Sirius GlpKa instrument using three ratios of Octanol:ISA water to generate Log P, Log Pion, and Log D values. The data was refined using Refinement Pro software version 1.0. Predictions of LogP were made using ACD Ver 8 and Syracuse KOWWIN Ver 1.67 software.

[3] = Aqueous solubility with pH measurement; details: water; for solubility at 24 h: 25 °C, thermodynamic from solid
Procedure: Each sample was suspended in 0.25 ml of solvent (water) in an amount effective to produce a maximum final concentration of greater than or equal to about 10 mg/ml of the parent free form of the compound (i.e., adding excess sample to account for the weight of the salt). […] The filtrate was then diluted down 101 times.

[4] = Gravimetric vapor sorption (GVS)
Procedure: GVS was used to determine the amount of water adsorbed by a sample. Briefly, samples were run on a Hiden IGASorp moisture sorption analyzer running CFRSorp software. Sample sizes were typically 10 mg. A moisture adsorption desorption isotherm was performed as outlined below in Table 3 (2 scans giving 1 complete cycle). Samples were loaded/unloaded at typical room humidity and temperature (40% RH, 25° C.). Samples were then analyzed by XRPD after GVS analysis, e.g., to determine whether any structural changes took place after adsorption of water. The standard isotherm was performed at 25° C. at 10% RH intervals over a 0-90% RH range.

[5] = Storage at 40° C./75% RH under ambient light (XRPD, HPLC purity, colour)
Procedure: (§1) Purity analysis was performed on an Agilent HP1100 system equipped with a diode array detector and using Chemstation V9 software. Gradient, Reverse Phase methods (duration approximately 40 minutes) were used in a HPLC1 system. A Thermo-Electron Corporation HyPurity C18 5 um 150×4.6 mm column was used at 25° C. Test samples were made-up of 0.2 mg/ml of the compound in acetonitrile:water (1:1 v/v). 10 μl of sample was injected into the column. The flow rate through the column was 1 ml/min and the detection wavelength, bandwidth was 254,8 nm. Phase A was 0.1% phosphoric acid in water and Phase B was 0.1% phosphoric acid in acetonitrile. The mobile phase timetable is shown below in Table 2.
Form I was characterized by pKa, LogP, LogPion and LogD determination and prediction, XRPD before and after storage at 40° C./75% RH for 4 weeks, PLM, DSC and TGA, ^1HNMR, solubility in water with pH measurement, HPLC purity before and after storage at 40° C./75% RH for 4 weeks, water content, GVS with XRPD and purity analysis after measurement, and VT-XRPD.
Form II has been characterized using XRPD before and after storage at 40° C./75% RH for 3 weeks, PLM, DSC and TGA, Solubility in water with pH measurement, HPLC purity, Water content, GVS with XRPD analysis after measurement, and VT-XRPD.

[6] = Accelerated light stability study (Atlas Suntest CPS+ light box)
Procedure: as §1
Accelerated Light stability experiments were conducted using an Atlas Suntest CPS+light box. The light exposure was set to 550 W/m^2 and the run time was set to 168 hours (1 week). The chamber temperature and black standard temperature (which indicates how hot the test samples will become) were set to 25° C. The actual temperature in the sample chamber was 40° C.
Form I and II were assessed using an Atlas Suntest CPS+ light box to determine the effect of their exposure to light over a period of 168 hours (1 week). The light exposure was set to 550 W/M^2. Samples were weighed into either open weighing boats covered by pyrex glass beakers, glass vials with open tops (no lid), or glass vials covered in Aluminum foil. In all instances, the material was spread out into an even, thin layer.

[7] = 10 week stability study at 40° C./75% RH and 60° C./75% RH, light and dark
Procedure: as §1
Samples of Form I and II were tested at 40° C./75% RH and 60° C./75% RH in both light and dark conditions for up to 10 weeks. As the samples were located in temperature/humidity control chambers, the exposure to light was limited to normal laboratory light conditions with artificial light and some winter daylight through the windows.
Approximately 100 mg of each sample was weighed into plastic weighing boats and spread out to form an even thin layer for each of the temperature/humidity/light conditions, as shown in Table 6. The dark samples were protected from exposure to light by wrapping them in aluminum foil. The foil was pierced to allow exposure to humidity.
Time points chosen for HPLC analysis during the stability study were T=0, 1, 2, 5 and 10 weeks. At 10 weeks, the samples were analyzed using XRPD, DSC and polarized light microscopy.

[8] = Variable temperature XRPD (VT-XRPD); details: heating; irreversible; hydrochloride
Procedure: Samples run under ambient conditions were prepared as flat plate specimens using powder without grinding unless otherwise stated. Approximately 1-2 mg of the sample was lightly pressed on a glass slide to obtain a flat surface. Samples run under non-ambient conditions (VT-XRPD) were mounted on a silicon wafer with heat conducting compound. The sample was then heated to the appropriate temperature at about 20° C./minute and subsequently held isothermally for about 1 minute before data collection was initiated.
Three samples were studied using variable temperature XRPD (VT-XRPD): Form I as received, substantially pure Form I as prepared in Example 3, and substantially pure Form II as prepared in Example 3. VT-XRPD studies were initially carried out on substantially pure Form I as prepared in Example 3 with measurements at 25° C., 50° C., 80° C., 150° C., 220° C., 225° C., 250° C. and cooling to 29° C. Prior to measurement of the last XRPD pattern, the material was crushed due to the growth of large crystals. An overlay of the XRPD patterns can be found in FIG. 4A.
An experiment was also carried out on Form I as received, with measurements at 26° C., 50° C., 150° C., 200° C., 210° C., 220° C., 230° C. and cooling to 27° C. An overlay of the XRPD patterns can be found in FIG. 4B. […] (see peak at ˜14.7 2θ). […]

[9] = 4 weeks at 40° C./75% RH, ambient light

Work on `Cc1cc2c(-c3ccccc3F)nc(N3CCNCC3)nc2s1.Cl` [Form I, 4-(2-fluorophenyl)-6-methyl-2-(piperazin-1-yl)thieno[2,3-d]pyrimidine hydrochloride] yielded a pKa ([1]; MeOH:H2O mixtures, extrapolated to 0% co-solvent, potentiometric determination in MeOH/water, Yasuda-Shedlovsky extrapolation, read-out: pKa (basic)) of 8.64, a pKa ([1]; aqueous solution, UV spectroscopy (D-PAS attachment), read-out: pKa of second basic centre) of 0.81 and a LogPion ([2]; 0.15M KCl(Aq) / 1-octanol) of 1.41. For the same compound, the logP ([2]; 1-octanol / 0.15M KCl (aq), 0.15M KCl(Aq) / 1-octanol) was 3.96, the logD ([2]; octanol/ISA water, pH 7.4) was 2.72 and the “pH of the solubility sample” value ([3]; 25° C., 24 hours, hydrochloride) was 6.33. For the same compound, the solubility at 24 h ([3]; read-out: Aqueous solubility (as the hydrochloride)) was 2100 µg/mL, the solubility at 24 h ([3]; read-out: Aqueous solubility (free base equivalent)) was 1700 µg/mL and the “XRPD reanalysis after GVS” value ([4]; after one adsorption/desorption cycle) was “did not show any change”. For the same compound, the “GVS total weight increase” value ([4]; between 0 and 90% RH, single cycle, 25° C., hydrochloride) was 5.0%, the GVS weight increase ([4]; between 20% and 30% RH) was “about 4.8%” and the “GVS weight increase, equivalent water” value ([4]; between 20% and 30% RH) was 1.0 moles of water. For the same compound, the “Colour of material surface after storage” value [5, 9] was “gone yellow”, the “HPLC purity after storage” value [5, 9] was 99.0% and the “XRPD pattern after storage” value ([5]; 40° C./75% RH for four weeks) was “unchanged”. The “Purity after 1 week light exposure” value ([6]; 20 ml glass vial covered in Al foil with loose lid (control)) was 99.9, the “Purity after 1 week light exposure” value ([6]; 20 ml glass vial, 550 W/m^2, 168 hours, hydrochloride) was 77.8 and the “HPLC purity after accelerated light study” value ([6]; one week, FIGS. 6A/6B (open weighing boats), hydrochloride) was 79.4%. The “Purity after 1 week light exposure” value ([6]; open weighing boat, 550 W/m^2, 168 hours, hydrochloride) was 79.4, the Purity % ([7]; 40° C./75% RH, Dark, 1 week) was 99.9% and the Purity % ([7]; 40° C./75% RH, Dark, 2 weeks) was 100%. For the same compound, the Purity % ([7]; 40° C./75% RH, Dark, 5 weeks) was 100%, the Purity % ([7]; 40° C./75% RH, Dark, 10 weeks, hydrochloride) was 99.9% and the Purity % ([7]; 40° C./75% RH, Light, 1 week) was 99.9%. The Purity % ([7]; 40° C./75% RH, Light, 2 weeks) was 100%, the Purity % ([7]; 40° C./75% RH, Light, 5 weeks, hydrochloride) was 99.8% and the Purity % ([7]; 40° C./75% RH, Light, 10 weeks, hydrochloride) was 99.4%. The Purity % ([7]; 60° C./75% RH, Dark, 1 week) was 99.9%, the Purity % ([7]; 60° C./75% RH, Dark, 2 weeks, hydrochloride) was 99.9% and the Purity % ([7]; 60° C./75% RH, Dark, 5 weeks) was 100%. The Purity % ([7]; 60° C./75% RH, Dark, 10 weeks, hydrochloride) was 100%, the Purity % ([7]; 60° C./75% RH, Light, 1 week) was 99.8% and the Purity % ([7]; 60° C./75% RH, Light, 2 weeks, hydrochloride) was 99.8%. For the same compound, the Purity % ([7]; 60° C./75% RH, Light, 5 weeks, hydrochloride) was 99.5%, the Purity % ([7]; 60° C./75% RH, Light, 10 weeks, hydrochloride) was 99.4% and the “Yellow coloration of the surface (visual inspection)” value ([7]; after 10 weeks, both storage conditions) was “greatest”. For the same compound, the Purity % ([7]; time point 0 weeks, hydrochloride) was 100% and the “Stability as indicated by the HPLC data” value ([7]; up to 10 weeks, 40° C./75% RH and 60° C./75% RH) was “stable to ambient light levels as well as elevated temperature and humidity”.

For `Cc1cc2c(-c3ccccc3F)nc(N3CCNCC3)nc2s1.Cl` [Form III, 4-(2-fluorophenyl)-6-methyl-2-(piperazin-1-yl)thieno[2,3-d]pyrimidine hydrochloride], the “Temperature of conversion into Form II” value [8] was 200-220 °C.
